{"source": "patent US10695324B2", "about": "“Treatment for wolfram syndrome and other endoplasmic reticulum stress disorders” (Washington University, priority 2014, dated 2020)", "key": {"[1]": {"tested_on": "CAPNS1 protein in HEK293T cells ectopically expressing WFS2", "assay": "CAPNS1 protein level after proteasome inhibition", "assay_type": "cell-based", "conditions": "2 μM", "protocol": "To find out whether WFS2 regulates CAPNS1 stability through the ubiquitin-proteasome pathway, HEK293T cells ectopically expressing WFS2 were treated with a proteasome inhibitor, MG132 (2 μM), and then the CAPNS1 protein level was measured."}, "[2]": {"tested_on": "INS-1 823/13 cells", "assay": "Small-scale screen for prevention of thapsigargin mediated cell death, caspase 3/7-Glo luminescence", "assay_type": "cell-based, rat", "conditions": "pretreated 24 hours, then 2 nM thapsigargin overnight", "protocol": "INS-1 823/13 cells were pretreated with DMSO or drugs for 24 hours the incubated in media containing 2 nM of thapsigargin (TG) overnight. Apoptosis was detected by caspase 3/7-Glo luminescence. […] These eight compounds were PARP Inhibitor, dantrolene sodium, NS398, rapamycin, pioglitazone, calpain inhibitor III, docosahexaenoic acid (DHA), and GLP-1 (FIG. 8A)."}, "[3]": {"tested_on": "INS-1 832/13 cells transfected with WFS2 siRNA", "assay": "WFS2-knockdown mediated cell death, cleaved caspase-3 immunoblotting", "assay_type": "cell-based, rat", "conditions": "β cell line; 5 μM for 24 hours, 24 hours post-transfection", "protocol": "(§1) Neuro2a and MIN6 cells were transfected with siRNA against WFS2 or a control scrambled siRNA (Cont.). After 36 hours post-transfection, cells were untreated or treated with 100 μM calpeptin for 12 hours. Cleaved caspase 3 and actin levels were assessed by immunoblotting (FIG. 5A, left panel). Quantified levels of cleaved caspase-3 are shown in FIG. 5A, right panel (n=3, *P<0.05). Additionally, early stage apoptosis was monitored by Annexin V staining followed by flow cytometry, FIG. 5C. INS-1 832/13 cells were transfected with scrambled siRNA and WFS2 siRNA. After 24 hours post-transfection, cells were untreated or treated with 5 μM calpeptin for 24 hours. Cleaved caspase-3, WFS2, and actin levels were monitored by immunoblotting (FIG. 5D, left panel) and quantified (FIG. 5D, right panel) (n=3, *P<0.05)."}, "[4]": {"tested_on": "MIN6 cells transfected with siRNA against WFS2", "assay": "WFS2-knockdown mediated cell death, cleaved caspase 3 immunoblotting", "assay_type": "cell-based, rodent", "conditions": "β cell line; 100 μM for 12 hours, 36 hours post-transfection", "protocol": "as §1"}, "[5]": {"tested_on": "Neuro2a cells transfected with siRNA against WFS2", "assay": "WFS2-knockdown mediated cell death, cleaved caspase 3 immunoblotting and Annexin V staining", "assay_type": "cell-based, mouse", "conditions": "neuronal cell line; 100 μM for 12 hours, 36 hours post-transfection", "protocol": "Flow cytometry analyses (FACS) were performed with LSRII Flow Cytometer (BD Biosciences, San Jose, Calif.) at the FACS core facility of Washington University School of Medicine Neural progenitor cells or NSC34 cells were plated in 24-well plates. After staining with Annexin V, cells were washed and resuspended in PBS. Cells were run using standard protocols, specifically Annexin V positive cell (i.e., apoptotic cells). The results were analyzed by FlowJo ver.7.6.3 (Ashland, Oreg.).\nas §1"}, "[6]": {"tested_on": "neural progenitor cells derived from iPS cells of a Wolfram syndrome subject", "assay": "Thapsigargin-induced cell death in patient neural progenitor cells, cleaved caspase-3 immunoblotting", "conditions": "pretreated 10 μM for 48 hours, then 0.125 μM thapsigargin for 20 hours", "description": "To generate iPS cells, fibroblasts were obtained from non-affected controls and subjects with Wolfram syndrome. […] To generate neural progenitor cells, iPSCs were counted and plated ˜50,000 per well in a 96-well plate to form uniform embryoid bodies. After 5 days, embryoid bodies were suspended in neural induction media and replated as adherent cultures. Fresh media was applied every day for 7 days. Neural rosettes formed in these cultures were selected and plated. Plated rosettes were fed with neural induction media every day for 4-7 days to obtain neural progenitor cells.\nWolfram patient neural progenitor cells were pretreated with or without 10 μM dantrolene for 48 hours."}, "[7]": {"tested_on": "ER-localized ryanodine receptors", "conditions": "previous studies; cited from earlier work"}, "[8]": {"conditions": "cited from earlier work"}, "[9]": {"tested_on": "NSC34 cells transfected with WFS2 siRNA", "assay": "Cell death mediated by WFS2 knockdown, cleaved caspase-3 immunoblotting", "assay_type": "cell-based", "conditions": "10 μM for 24 hours, 24 hours post transfection", "protocol": "(§2) In to determine if danotrolene affects ER calcium homeostasis, cells were treated with ryanodine or dantrolene. INS-1 832/13 cells were transfected with scrambled siRNA or WRFS1 siRNA. After 24 hours post-transfection, cells were untreated or treated with 2 μM ryanodine for 24 hours. Cleaved caspase-3, WFS1, and GAPDH levels were monitored by immunoblotting (FIG. 10A, left panel) and quantified ([…], right panel). INS-1 832/13 cells (FIG. 10B) and NSC34 cells (FIG. 10C) were transfected with scrambled siRNA or WRFS2 siRNA. After 24 hours post transfection, cells were untreated or treated with 10 μM dantrolene for 24 hours. Cleaved caspase-3, WFS2, and GAPDH levels were monitored by immunoblotting."}, "[10]": {"tested_on": "WFS1-knockdown NSC34 cells", "assay": "Protection of WFS1-knockdown cells, immunoblotting of cleaved caspase-3 and cleaved spectrin", "assay_type": "cell-based", "conditions": "10 μM for 24 hours", "protocol": "NSC34 cells were transfected with scrambled siRNA or siRNA directed against WFS1, then untreated or treated with 10 μM dantrolene for 24 hours."}, "[11]": {"tested_on": "INS1E cells", "assay": "ER stress- and cytokine-induced β cell death, caspase 3/7 activity assay", "conditions": "100 nM", "description": "A Caspase 3/7 assay (Promega, Madison, Wis.) was utilized to measure caspase-3 and -7 activities in various cell lines. The assay provides a proluminescent caspase-3/7 substrate, which contains the tetrapeptide sequence DEVD. This caspase-3/7 substrate can be added directly to cell lysates. The substrate is cleaved to release a aminoluciferin, which is a substrate for luciferase used in the production of light. The signal is proportional to caspase-3/7 activity."}, "[12]": {"tested_on": "INS-1 832/13 cells transfected with WFS2 siRNA", "assay": "Cell death mediated by WFS2 knockdown, cleaved caspase-3 immunoblotting", "assay_type": "cell-based, rat", "conditions": "10 μM for 24 hours, 24 hours post transfection", "protocol": "as §2"}, "[13]": {"tested_on": "INS-1 832/13 cells", "assay": "Cytoplasmic calcium levels by Fura-2 calcium indicator", "assay_type": "cell-based, rat", "conditions": "10 μM for 24 hours", "protocol": "(§3) First, the question of whether dantrolene could decrease cytoplasmic calcium levels was tested. […] and NSC34 cells were untreated or treated with 10 μM dantrolene for 24 hours. Cytoplasmic calcium levels were measured by Fura-2 calcium indicator over a period of 5 minutes. Thapsigargin (1 μM) was added at time 0. […] Next, it was necessary to determine if dantrolene could restore cytosolic calcium levels in WFS1-deficient cells."}, "[14]": {"tested_on": "NSC34 cells", "assay": "Cytoplasmic calcium levels by Fura-2 calcium indicator", "assay_type": "cell-based", "conditions": "10 μM for 24 hours", "protocol": "as §3"}, "[15]": {"tested_on": "WFS1 silenced INS-1 832/13 cells", "assay": "Protection of WFS1 silenced cells, immunoblotting of cleaved caspase-3 and cleaved spectrin", "assay_type": "cell-based, rat", "conditions": "10 μM for 48 hours", "protocol": "In order to determine whether dantrolene conferred protection in WFS1 deficient cells and WFS1 silenced INS-1 832/13 cells were treated with dantrolene. INS-1 832/13 cells were transfected with scrambled siRNA or siRNA directed against WFS1. Cells were untreated or treated with 10 μM dantrolene for 48 hours, then incubated in media containing 0.5 μM thapsigargin for 6 hours. Expression levels of cleaved caspase-3 under untreated and thapsigargin treated conditions (FIG. 9A, left panel) were quantified and shown in FIG. 9A, center and right panels (n=3, *P<0.05). Protein levels of cleaved spectrin, WFS1, and GAPDH were analyzed by immunoblotting (FIG. 9B, left panel) and quantified (FIG. 9B, right panel) (n=3, *P<0.05). […]"}, "[16]": {"tested_on": "INS-1 832/13 cells expressing D1ER", "assay": "ER calcium monitoring with D1ER (FRET/CFP ratio, FACS)", "assay_type": "cell-based, rat", "conditions": "various concentrations, dose-dependent manner", "from_the_text": "A β cell line was developed to monitor ER calcium levels under various conditions. The ER-localized calcium sensor D1ER was modified to contain two fluorescent proteins, CFP and YFP, which were inserted onto the N- and C-terminus, respectively. INS-1 832/13 cells were transfected with the modified D1ER calcium sensor. When Ca^2+ binds to the calmodulin, an intramolecular rearrangement occurs and brings CFP and YFP into close proximity resulting in a fluorescence resonance energy transfer (FRET) from CFP to YFP. The FRET signal allows ratiometric measurements of free ER Ca^2+ and changes in Ca^2+ using FRET/CFP ratio.\nINS-1 832/13 cells that stably express D1ER were treated with digitonin and ethylene glycol tetraacetic acid (EGTA) which causes the minimum value of FRET/CFP ratio, FIG. 10F. Additionally, cells treated with digitonin and CaCl2 led to the maximum value of FRET/CFP ratio, FIG. 10F.\nFRET/CFP ratio was decreased in INS-1 832/13 cells treated with thapsigargin in a dose-dependent manner (FIG. 10G). Additionally, the rates of ER calcium-depleted cells increased in cells treated with thapsigargin in a dose-dependent manner (FIG. 10G)."}, "[17]": {"tested_on": "ER stress-mediated cell death", "conditions": "have been shown (references); cited from earlier work"}, "[18]": {"conditions": "thapsigargin 1 μM added at time 0, Fura-2 over 5 minutes"}}, "note": "Ends that are not written are not given here. Peptide text beside a SMILES is read from it. * marks the point of attachment. Cbz = O=C(OCc1ccccc1)*", "data": [{"compound": "CC(C)C[C@@H](C=O)NC(=O)[C@H](CC(C)C)NC(=O)[C@H](CC(C)C)NC(=O)OCc1ccccc1", "note": "[MG132] (Cbz-Leu-Leu-Leu-aldehyde)", "values": [{"measurement": "CAPNS1 protein level", "setting": "[1]", "value": "stabilized CAPNS1 protein"}]}, {"compound": "CS(=O)(=O)Nc1ccc([N+](=O)[O-])cc1OC1CCCCC1", "note": "[NS398]", "values": [{"measurement": "suppression of thapsigargin mediated cell death (apoptosis by caspase 3/7-Glo luminescence)", "setting": "[2]; 10 μM (Table 3)", "value": "significantly suppress thapsigargin mediated cell death"}]}, {"compound": "CC(C)[C@H](NC(=O)OCc1ccccc1)C(=O)N[C@H](C=O)Cc1ccccc1", "note": "[calpain inhibitor III] (Cbz-Val-Phe-aldehyde)", "values": [{"measurement": "suppression of thapsigargin mediated cell death (apoptosis by caspase 3/7-Glo luminescence)", "setting": "[2]; 1 μM (Table 3)", "value": "significantly suppress thapsigargin mediated cell death"}]}, {"compound": "CCCC[C@@H](C=O)NC(=O)[C@H](CC(C)C)NC(=O)OCc1ccccc1", "note": "[calpeptin]", "values": [{"measurement": "WFS2-knockdown mediated cell death", "setting": "[3]", "value": "prevented WFS2-knockdown mediated cell death"}, {"measurement": "WFS2-knockdown mediated cell death", "setting": "[4]", "value": "prevented WFS2-knockdown mediated cell death"}, {"measurement": "WFS2-knockdown mediated cell death", "setting": "[5]", "value": "prevented WFS2-knockdown mediated cell death"}]}, {"compound": "O=C1CN(/N=C/c2ccc(-c3ccc([N+](=O)[O-])cc3)o2)C(O)=N1", "note": "[dantrolene, 1-[[5-(4-nitrophenyl)-2-furyl]methylideneamino]imidazolidine-2,4-dione]", "values": [{"measurement": "thapsigargin-induced cell death (cleaved caspase-3)", "setting": "[6]", "value": "could prevent cell death"}, {"measurement": "suppression of thapsigargin mediated cell death (apoptosis by caspase 3/7-Glo luminescence)", "setting": "[2]; 10 μM (Table 3)", "value": "significantly suppress thapsigargin mediated cell death"}, {"measurement": "leakage of calcium from the ER to the cytosol", "setting": "[7]", "value": "suppresses leakage of calcium from the ER to the cytosol"}, {"measurement": "solubility in water", "setting": "[8]", "value": "poorly soluble in water"}, {"measurement": "cell death mediated by WFS2 knockdown", "setting": "[9]", "value": "did not block cell death mediated by WFS2 knockdown"}, {"measurement": "calpain activation (cleaved spectrin)", "setting": "[10]", "value": "prevented calpain activation"}, {"measurement": "cell death (cleaved caspase-3)", "setting": "[10]", "value": "prevented calpain activation and cell death"}, {"measurement": "cytokine induced β cell death", "setting": "[11]; inflammatory cytokine 50 ng/mL", "value": "prevented"}, {"measurement": "thapsigargin-induced β cell death", "setting": "[11]; thapsigargin 10 nM for 24 hours", "value": "prevented"}, {"measurement": "cell death mediated by WFS2 knockdown", "setting": "[12]", "value": "did not block cell death mediated by WFS2 knockdown"}, {"measurement": "cytosolic calcium levels", "setting": "[13]; [18]", "value": "decreased cytosolic calcium levels"}, {"measurement": "cytosolic calcium levels in WFS1-knockdown cells", "setting": "[13]; WFS1-knockdown INS-1 832/13 cells", "value": "restored cytosolic calcium levels"}, {"measurement": "cytosolic calcium levels", "setting": "[14]; [18]", "value": "decreased cytosolic calcium levels"}, {"measurement": "cytosolic calcium levels in WFS1-knockdown cells", "setting": "[14]; WFS1-knockdown NSC34 cells", "value": "restored cytosolic calcium levels"}, {"measurement": "calpain activity (cleaved spectrin)", "setting": "[15]; then 0.5 μM thapsigargin for 6 hours", "value": "suppression of apoptosis and calpain activity"}, {"measurement": "apoptosis (cleaved caspase-3)", "setting": "[15]; then 0.5 μM thapsigargin for 6 hours or untreated", "value": "suppression of apoptosis"}]}, {"compound": "C/C=C(/C)C(=O)O[C@H]1C(C)=C2[C@H]([C@@H]1OC(=O)CCCCCCC)[C@@](C)(OC(C)=O)C[C@H](OC(=O)CCC)[C@@]1(O)[C@H]2OC(=O)[C@@]1(C)O", "note": "[thapsigargin]", "values": [{"measurement": "FRET/CFP ratio (ER calcium)", "setting": "[16]", "value": "decreased"}, {"measurement": "rates of ER calcium-depleted cells", "setting": "[16]", "value": "increased"}]}, {"compound": "GLP-1: Glucagon-like peptide-1; FDA approved drug (HAEGTFTSDVSSYLEGQAAKEFIAWLVKGR; ends and bridges not checked; UniProt P01275 98-127, looked up)", "values": [{"measurement": "suppression of thapsigargin mediated cell death (apoptosis by caspase 3/7-Glo luminescence)", "setting": "[2]; 50 nM (Table 3)", "value": "significantly suppress thapsigargin mediated cell death"}, {"measurement": "protection against ER stress-mediated cell death", "setting": "[17]", "value": "confer protection against ER stress-mediated cell death"}]}]}
